System: cough receptor
Experiment: Cough receptor sensitivity test (nebulizer inhalation, C5)
Type: in vivo, human
Settings: seventeen healthy adults, inhaled by nebulizer for 15 seconds at intervals of one minute, 0.49 to 1,000 μM
Method: In the following Examples, 1 mL of an emulsifier (Tween 80) and 1 mL of 99.7% ethanol were added to 70 μL of the resultant extracted oil immediately before use, and the mixture was diluted with physiological saline (Otsuka) in Example 1 or with distilled water in Example 2, to thereby prepare solutions containing different concentrations of capsinoid. In the same way as above, 1 mL of an emulsifier (Tween 80) and 1 mL of 99.7% ethanol were added to 30.5 mg of capsaicin (manufactured by Sigma-Aldrich) immediately before use, and the mixture was diluted with physiological saline (Otsuka) in Example 1 or with distilled water in Example 2, to thereby prepare solutions containing different concentrations of capsaicin.
Seventeen healthy adults (mean age 36±2.6) inhaled the capsaicin solution prepared in Production Example (0.49 to 1,000 μM) by a nebulizer for 15 seconds at intervals of one minute, and the concentrations for causing five or more coughs by one aspiration (C5) were determined.
At a later date, the same test was performed for the same test subjects using the capsinoid solutions (0.49 to 1,000 μM) to determine C5, followed by comparison between C5 of the capsaicin solution and C5 of the capsinoid solution.

## COc1cc(CNC(=O)CCCC/C=C/C(C)C)ccc1O [capsaicin solution, capsaicin]
  C5 (concentration for causing five or more coughs by one aspiration): 2.02 µM

From US9420817B2, “Agent for amelioration of dysphagia, and pharmaceutical or food composition comprising the same” (AJINOMOTO CO., INC., priority 2006, dated 2016)
